Assay results taken from US5591752A, “Quinoline derivative” (Ube Industries, Ltd., priority 1993, dated 1997).
pKi: −log10 of the molar value. Where two headings read alike, the source gives them in different places.

What was measured:
[1] = biological target: T1, Leukotriene D4 (LTD4) receptor (Cavia porcellus, UniProt Q2NNR5); assay: Leukotriene D4 receptor binding test ([3H]ICI-198615 displacement, lung cell membrane fractions); conditions: guinea pig lung membranes, [3H]ICI-198615 about 0.2 nM, pKi=-log Ki; for pKi: pKi value; for Ki: read-out: pKi value (converted)
T1 construct: lung cell membrane fractions of guinea pigs were used; from tissue; host or cells: lung membrane fractions of Hartley strain male guinea pigs
T1 sequence (Q2NNR5 1-340): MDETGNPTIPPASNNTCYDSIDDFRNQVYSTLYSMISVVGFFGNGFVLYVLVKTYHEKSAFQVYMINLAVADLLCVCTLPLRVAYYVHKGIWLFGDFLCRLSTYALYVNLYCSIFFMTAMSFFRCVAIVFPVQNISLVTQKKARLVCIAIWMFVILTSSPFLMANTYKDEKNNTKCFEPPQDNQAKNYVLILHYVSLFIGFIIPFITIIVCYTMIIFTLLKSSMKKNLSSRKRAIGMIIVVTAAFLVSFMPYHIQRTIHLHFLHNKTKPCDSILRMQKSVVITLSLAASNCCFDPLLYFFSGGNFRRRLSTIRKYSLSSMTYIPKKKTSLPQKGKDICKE
Method: Leukotriene D4 receptor binding test
<Preparation of receptor samples>
As receptor samples, lung cell membrane fractions of guinea pigs were used. The membrane fractions were prepared according to the method of Ahn et al. (Ahn, H. S. & Barnett, A. (1986) Eur. J. Pharmacol., 127, 153.). After Hartley strain male guinea pigs (body weight: 400 to 500 g, supplied by Nihon SLC Co.) were killed by exsanguination, lungs were extracted and perfused with a physiological saline solution (Otsuka Seiyaku) from lung arteries. The extracted lungs were cut into pieces immediately or after the lungs were stored by freezing them at -80 ° C. A 10-fold amount of a buffer solution (pH 7.4) of 10 mM PIPES, 10 mM MgCl2, 10 mM CaCl2 and 50 mM NaCl was added thereto and the mixtures were made suspensions by a homogenizer (manufactured by Yamato Co., LP-41C Model). After the suspensions were filtered with gauze, the filtrates were centrifuged by an ultracentrifuge (manufactured by Hitachi Co., 70P-72 Model) with 50,000 g for 10 minutes, whereby membrane fractions were deposited. The membrane fractions were washed twice and then suspended in the same buffer solution to obtain receptor samples. Measurement of a protein concentration was conducted by the Lowry method (Lowry, O, H. et al. (1951) J. Biol. Chem., 193,265.) by using bovine serum albumin as a standard protein. The samples prepared (protein amount: 10 to 25 mg/ml) were stored by freezing them at -80° C. and used for experiments.
<Leukotriene D4 receptor binding test>
The leukotriene D4 (LTD4) receptor binding test was conducted according to the method of O'Sullivan et al. (O'Sullivan, B. P. & Mong, S. (1989) Mol. Pharmacol., 35, 795.). The receptor samples were diluted with a buffer solution (pH 7.4) of 10 mM PIPES, 10 mM MgCl2, 10 mM CaCl2 and 50 mM NaCl and 0.42 mg/ml in terms of a protein amount was used. As a labeling compound, [^3 H]ICI-198615 (produced by Du Pont Co., 60 Ci/mmol) which specifically binds to the LTD4 receptor was used. [^3 H]ICI-198615 and a compound to be tested were dissolved in dimethylsulfoxide and a 1/50 amount (2% by volume) of the solution was added to the receptor-diluted solutions, respectively. 500 μl of each reaction mixture was incubated at 25° C. for 40 minutes and then filtered with a glass fiber filter (Whatman, GF/B type) by using a cell harvester (manufactured by Brandel Co., M-30R Model). The filters were washed with 10 ml of an ice-cooled 100 mM NaCl-50 mM phosphate buffer solution (pH 7.5) and subjected to ultrasonic treatment in 9 ml of a liquid scintillator (manufactured by Nacalai Tesque, Co., Clear sol I) for 2 minutes. Thereafter, radioactivity was measured by a liquid scintillation counter (manufactured by Packard Co., 2000 CA Model). In a test of determining a dissociation constant of ICI-198615, 0.1 to 2 nM [^3 H]ICI-198615 and 10 μM non-radioactive ICI-198615 were used. In a test of determining inhibition constants of the respective compounds to be tested, [^3 H]ICI-198615 having a concentration of about 0.2 nM and the compounds each having a concentration of 0.1 pM to 0.1 mM were used.
<Data analysis of receptor binding test>
The dissociation constant (Kd) of ICI-198615 and the binding inhibition constants (Ki) of the respective compounds to be tested were determined by the following numerical formulae (A), (B) and (C).
wherein B: a concentration of a label [3H] which is bound to a receptor, Bmax: a maximum receptor-binding concentration of a label [^3 H], F: a concentration of a label [^3 H] which is not bound to a receptor, [L]: a concentration of a label [^3 H], IC50 : a concentration of a compound which inhibits 50% of binding of a label [^3 H] to a receptor and pKi: a logarithm, of a reciprocal of Ki.

[2] = system: Leukotriene D4-induced respiratory contraction; assay: Leukotriene D4-induced respiratory contraction test (Konzett and Rossler method); type: in vivo, guinea pig; conditions: Cavia porcellus, po, LTD4 0.5 μg/kg i.v. 1 hour later, anesthetized Hartley guinea pigs, read-out: Inhibition ratio
Method: Leukotriene D4 -induced respiratory contraction test
Hartley strain male guinea pigs (body weight: 400 to 600 g, supplied by Nihon SLC Co.) were used and all of them were bred under conditions of constant temperature (23°±2° C.) and constant humidity ([…]). The animals which had been fasted for 24 hours before experiments were used.
LTD4 (Funakoshi) dissolved in a physiological saline solution (Otsuka Seiyaku) was used. The compounds to be tested suspended in a 0.5% carboxymethyl cellulose aqueous solution were used.
The operation was conducted according to the method of Konzett and Rossler (Konzett, H. and Rossler, R. Naunyn Schmiedebergs (1940) Arch. Exp. Pathol. Pharmacol., 195, 71.). Each guinea pig was anesthetized with urethane (1.5 g/kg, i.p.) and then fixed in the supine position. A trachea was incised and a .phi. type cannula was inserted into the trachea and connected to a respirator (Shinano Seisakusho, SN-480-7) for small animals. Artificial respiration with positive pressure was conducted with a pressure loaded to a lung of 10 cm H2 O, an air supplying rate of 5 ml/stroke and 60 strokes/min. The air supplying rate to the trachea was measured by differential pressure transducers (Nihon Koden, TU-241T and TP-602T) connected to the cannula in the trachea and recorded on a rectigraph (Nihon Koden, WT-645G Model).
LTD4 (0.5 μg/kg/0.5 ml) was administered intravenously (i.v.) from a cannula inserted into a common jugular vein to cause shrinkage of a trachea. Subsequently, a compound to be tested was administered orally (p.o.) after 10 minutes and LTD4 was administered intravenously (i.v.) again after 1 hour to cause shrinkage of the trachea. The results are shown by using a ratio of inhibiting a trachea-shrinking reaction before administering the compound to be tested.

Row | Structure (SMILES) | pKi [1] | inhibition in vivo at 1 mg/kg [2] [%] | Ki [1] [nM]
1 | O=C(O)CCSC1c2ccccc2COc2ccc(OCc3ccc4cc(F)c(Cl)cc4n3)cc21 (single isomer, unassigned; (+)) [Example 50, (+)-11-(2-Carboxyethylthio)-2-(7-chloro-6-fluoroquinolin-2-yl)methoxy-6,11-dihydrodibenz[b,e]oxepine] | 10.10 | 100 | 
2 | c1ccc(Cc2nnn[nH]2)c(COc2ccc(OCc3ccc4ccccc4n3)cc2)c1 [Compound A, 5-[[2-[[4-(2-quinolinylmethoxy)phenoxy]methyl]phenyl]methyl]-1H-tetrazole, reference compound] |  | 51 | 6.31
3 | O=C(O)CCSC1c2ccccc2COc2ccc(OCc3ccc4cc(F)c(Cl)cc4n3)cc21 (centres unmarked) [Example 1, 11-(2-Carboxyethylthio)-2-(7-chloro-6-fluoroquinolin-2-yl)methoxy-6,11-dihydrodibenz[b,e]oxepine] |  | 100 | 
4 | O=C(O)CCSC1c2ccccc2COc2ccc(OCc3ccc4ccc(Cl)cc4n3)cc21 (centres unmarked) [Example 2, 11-(2-Carboxyethylthio)-2-(7-chloroquinolin-2-yl)methoxy-6,11-dihydrodibenz[b,e]oxepine] | 9.10 | 100 | 
5 | O=C(O)CCSC1c2ccccc2COc2ccc(OCc3ccc4cc(F)ccc4n3)cc21 (centres unmarked) [Example 3, 11-(2-Carboxyethylthio)-2-(6-fluoroquinolin-2-yl)methoxy-6,11-dihydrodibenz[b,e]oxepine] | 8.50 | 100 | 
6 | O=C(O)CCSC1c2ccccc2COc2ccc(OCc3ccc4ccc(F)cc4n3)cc21 (centres unmarked) [Example 4, 11-(2-Carboxyethylthio)-2-(7-fluoroquinolin-2-yl)methoxy-6,11-dihydrodibenz[b,e]oxepine] | 8.80 | 93 | 
7 | COc1ccc2c(c1)COc1ccc(OCc3ccc4ccc(Cl)cc4n3)cc1C2SCCC(=O)O (centres unmarked) [Example 13, 11-(2-Carboxyethylthio)-2-(7-chloroquinolin-2-yl)methoxy-8-methoxy-6,11-dihydrodibenz[b,e]oxepine] | 9.10 | 67 | 
8 | O=C(O)CSC1c2ccccc2COc2ccc(OCc3ccc4ccc(Cl)cc4n3)cc21 (centres unmarked) [Example 21, 11-Carboxymethylthio-2-(7-chloroquinolin-2-yl)methoxy-6,11-dihydrodibenz[b,e]oxepine] | 9.10 | 71 | 
9 | O=C(O)COC1c2ccccc2COc2ccc(OCc3ccc4cc(Cl)ccc4n3)cc21 (centres unmarked) [Example 26, 11-Carboxymethoxy-2-(6-Chloroquinolin-2-yl)methoxy-6,11-dihydrodibenz[b,e]oxepine] |  | 87 | 1.58
